Data taken from patent US20230165868A1, “PARAXANTHINE-BASED COMPOSITIONS FOR ENHANCING MUSCLE FUNCTION, NITRIC OXIDE SIGNALING, AND/OR MUSCLE GLYCOGEN LEVELS” (Ingenious Ingredients, LP, priority 2021, published 2023).

Assays:
[1] = Body weight during 28-day oral supplementation; format: in vivo, Swiss Albino mice; details: mean ± SD, n = 8 mice
Experimental: (§1) Forty 8-week-old male Swiss Albino mice were housed in an animal room at a constant temperature (22±3° C.) and humidity (30%-70%) under a 12:12 h light-dark cycle with standard laboratory diet (Purina 5L79, Rat and Mouse 18% protein; PMI Nutrition International, Brentwood, Mo., USA). Distilled water was provided ad libitum. All animal experiments were reviewed and approved by the Institutional Animal Ethical Committee (IAEC) of Radiant Research Services Pvt. Ltd (Bangalore, India). All research was conducted in accordance with the guidelines of the committee for the purpose of control and supervision of experiments on animals (CPCSEA Registration Number-1803/PO/RcBi/S/2015/CPCSEA).
(§2) After one week of acclimation, the animals were randomly divided by body weight into five groups (n=8 per group in each test) for oral treatment once a day, at approximately same time each day (±1 hour), for 28 consecutive days: (1) vehicle control; (2) paraxanthine (3) L-theanine; (4) alpha-GPC; and (5) taurine. The dose administered to the mice was calculated using US Food and Drug Administration for human equivalence doses (HED), assuming a human weight of 60 kg. The following HED were used in this study: 100 mg paraxanthine, (ENFINITY™, Ingenious Ingredients, L.P Lewisville, Tex., USA; mouse dose: 20.5 mg/kg bw/day); 200 mg alpha-GPC mg (YangLing Daily Health Bio-Engineering Technology Co., Ltd; mouse dose: 41.09 mg/kg bw), 50 mg L-theanine (Hangzhou Qinyuan Natural Plant High-tech Co., Ltd; mouse dose: 10.28 mg/kg bw), and 500 mg taurine (Jiangyin Huachang Food Additive Co., Ltd; mouse dose: 102.75 mg/kg bw). 0.5% Carboxy Methyl Cellulose sodium was used as vehicle and the test item formulations were prepared daily. Dosing was conducted via oral gavage using disposable polypropylene syringes with sterilized stainless steel gavage tubes. The food intake and water consumption were monitored daily, and BW was recorded weekly. The last dose on day 28 was given 1 hour prior to testing.

[2] = Feed consumption during 28-day oral supplementation; format: in vivo, Swiss Albino mice; details: mean ± SD, n = 8 mice
Experimental: as §1, §2

male Swiss Albino mice [3] = test: Forelimb grip strength test; format: in vivo; details: for Baseline forelimb grip strength: day 0 baseline, time holding steel bar, mean of three trials; for increase in forelimb grip strength compared to control: day 28, one hour after oral treatment, vs vehicle control
Experimental: After one week of acclimation, the animals were randomly divided by body weight into five groups (n=8 per group in each test) for oral treatment once a day, at approximately same time each day (±1 hour), for 28 consecutive days: (1) vehicle control; (2) paraxanthine (3) L-theanine; […] The dose administered to the mice was calculated using US Food and Drug Administration for human equivalence doses (HED), assuming a human weight of 60 kg. […] Dosing was conducted via oral gavage using disposable polypropylene syringes with sterilized stainless steel gavage tubes. The food intake and water consumption were monitored daily, and BW was recorded weekly. The last dose on day 28 was given 1 hour prior to testing. The forelimb grip strength was measured on day 0 and day 28 by using a stainless-steel grill to assess muscle strength (Orchid Scientific & Innovative India Pvt Ltd, India). Grip strength was measured one hour after treatment. Briefly, each mouse was placed on a grill chamber and the steel bar is inverted; grip strength is measured by recording the time each animal holds the steel bar. The maximum time for each trial was six minutes. Each animal performed three independent trials separated by six minutes intervals and the mean of the three trials was calculated.

male Swiss Albino mice [4] = test: Treadmill endurance test; format: in vivo; details: for Distance traveled on treadmill / increase in distance traveled during treadmill exercise compared to control: after 28 days of supplementation; for Distance traveled on treadmill: run until exhaustion, n=8; for Distance traveled on treadmill / Baseline treadmill performance (distance): mean ± SD; for increase in distance traveled during treadmill exercise compared to control: vs vehicle control
Experimental: (2) paraxanthine (3) L-theanine; […] The dose administered to the mice was calculated using US Food and Drug Administration for human equivalence doses (HED), assuming a human weight of 60 kg. […] Dosing was conducted via oral gavage using disposable polypropylene syringes with sterilized stainless steel gavage tubes. The food intake and water consumption were monitored daily, and BW was recorded weekly. The last dose on day 28 was given 1 hour prior to testing. […] All animals were adapted to this procedure daily 60 minutes after dosing for five days in a week during the treatment period. On 28th day of each respective treatment, all animals were subjected to a muscle endurance test. […] Animals were subjected to the treadmill test until exhaustion. Distance traveled (cm) was measured as a marker of exercise performance.

[5] = Clinical biochemical profiles of serum; format: in vivo, Swiss Albino mice; details: serum at end of 28-day treatment; mean ± SD, n = 8
Experimental: (§3) After one week of acclimation, the animals were randomly divided by body weight into five groups (n=8 per group in each test) for oral treatment once a day, at approximately same time each day (±1 hour), for 28 consecutive days: (1) vehicle control; (2) paraxanthine (3) L-theanine; […] The dose administered to the mice was calculated using US Food and Drug Administration for human equivalence doses (HED), assuming a human weight of 60 kg. […] Dosing was conducted via oral gavage using disposable polypropylene syringes with sterilized stainless steel gavage tubes. The food intake and water consumption were monitored daily, and BW was recorded weekly. The last dose on day 28 was given 1 hour prior to testing. All animals were euthanized by 95% CO2 after 28 days of following their assigned treatment. Blood was collected immediately after euthanization by the retro-orbital route and was immediately centrifuged at 1500×g for 10 min at 4° C. before having all serum transferred into cryogenic tubes and stored at -80° C. The liver, heart, gastrocnemius and soleus were excised and weighed. Collected serum was analyzed for clinical biochemical variables including aspartate aminotransaminase (AST), alanine aminotransaminase (ALT), alkaline phosphatase (ALP), uric acid (UA), creatinine, total cholesterol (TC), triglycerides (TG), high-density lipoproteins (HDL), and low-density lipoproteins (LDL) were measured using an auto analyzer (EM360, ERBA Diagnostics Mannheim GmbH, Mannheim, Germany). Nitric oxide was analyzed using standard ELISA assay kits (Lot No: E-BC-[…], Elabscience, Houston, Tex., USA).

male Swiss Albino mice [6] = test: Muscle weight (gastrocnemius, soleus) after 28 days; format: in vivo; details: after 28 days of supplementation; vs vehicle control
Experimental: (§4) (2) paraxanthine (3) L-theanine; […] The dose administered to the mice was calculated using US Food and Drug Administration for human equivalence doses (HED), assuming a human weight of 60 kg. […] Dosing was conducted via oral gavage using disposable polypropylene syringes with sterilized stainless steel gavage tubes. The food intake and water consumption were monitored daily, and BW was recorded weekly. The last dose on day 28 was given 1 hour prior to testing. All animals were euthanized by 95% CO2 after 28 days of following their assigned treatment. Blood was collected immediately after euthanization by the retro-orbital route and was immediately centrifuged at 1500×g for 10 min at 4° C. before having all serum transferred into cryogenic tubes and stored at -80° C. The liver, heart, gastrocnemius and soleus were excised and weighed.

[7] = Liver and heart mass / gross pathology; format: in vivo, Swiss Albino mice; details: after 28 days of treatment; mean ± SD, n = 8
Experimental: as §4

Nitric oxide = test: Serum nitric oxide ELISA; format: in vivo, Swiss Albino mice; details: serum after 28 days of treatment; for Nitric Oxide: mean ± SD, n = 8; for increase in nitric oxide levels over control: vs vehicle control
Experimental: as §3

| Structure (SMILES) | body weight ([1]; Basal) [grams] | body weight ([1]; Week 1, oral once daily) [grams] | body weight ([1]; Week 2, oral once daily) [grams] | body weight ([1]; Week 3, oral once daily) [grams] | body weight ([1]; Week 4, oral once daily) [grams] | feed consumption ([2]; Week 1) [grams] | feed consumption ([2]; Week 2) [grams] | feed consumption ([2]; Week 3) [grams] | feed consumption ([2]; Week 4) [grams] | Baseline forelimb grip strength (male Swiss Albino mice [3]) | increase in forelimb grip strength compared to control (male Swiss Albino mice [3]) | Distance traveled on treadmill (male Swiss Albino mice [4]) | increase in distance traveled during treadmill exercise compared to control (male Swiss Albino mice [4]) | Baseline treadmill performance (distance) (male Swiss Albino mice [4]) [cm] | ALP [5] [U/L] | ALT [5] [U/L] | AST [5] [U/L] | Creatinine [5] [mg/dL] | Urea [5] [mg/dL] | increase in gastrocnemius muscle mass compared to control (male Swiss Albino mice [6]) | also measured |
| --- | --- | --- | --- | --- | --- | --- | --- | --- | --- | --- | --- | --- | --- | --- | --- | --- | --- | --- | --- | --- | --- |
| Cn1c(=O)[nH]c2ncn(C)c2c1=O [Paraxanthine, 1,7-dimethylxanthine] | 22.01 ± 0.40 | 23.86 ± 0.55 | 26.95 ± 0.41 | 29.68 ± 0.45 | 32.80 ± 0.48 | 41.73 ± 046 | 43.89 ± 0.68 | 46.00 ± 0.59 | 48.34 ± 0.68 | 90.60±0.92 | 17% | 2,100±133 centimeters | 39% | 255.3±30.7 | 179.4 ± 2.56 | 23.88 ± 0.99 | 39.50 ± 1.60 | 0.86 ± 0.11 | 29.13 ± 0.99 | 14% | increase in soleus muscle mass compared to control (male Swiss Albino mice [6]): 41%; Heart mass [7]: 190 ± 1.4 mg; Liver mass [7]: 1,870 ± 31 mg; Nitric Oxide (Nitric oxide): 13.06 ± 0.58 ng/mL; increase in nitric oxide levels over control (Nitric oxide): 101% |
| NCCS(=O)(=O)O [Taurine, taurine] | 22.50 ± 0.49 | 24.08 ± 0.66 | 26.99 ± 0.82 | 29.06 ± 0.69 | 32.34 ± 3.06 | 40.95 ± 0.60 | 43.21 ± 1.25 | 45.21 ± 1.15 | 47.36 ± 1.08 | 90.94±0.85 | failed to reach statistical significance | 1,671±125 centimeters | did not increase treadmill performance | 256.9±29.3 | 180.4 ± 5.42 | 25.00 ± 1.07 | 40.13 ± 2.36 | 0.93 ± 0.14 | 29.38 ± 1.60 | no effect on muscle mass | increase in soleus muscle mass compared to control (male Swiss Albino mice [6]): no effect on muscle mass; Heart mass [7]: 190 ± 1.2 mg; Liver mass [7]: 1,834 ± 52 mg; Nitric Oxide (Nitric oxide): 7.56 ± 0.29 ng/mL |
| CCNC(=O)CC[C@H](N)C(=O)O [L-Theanine, L-theanine] | 22.41 ± 0.49 | 24.20 ± 0.56 | 26.76 ± 0.71 | 29.00 ± 0.60 | 31.60 ± 0.64 | 41.26 ± 0.86 | 43.50 ± 0.66 | 45.30 ± 0.48 | 47.60 ± 0.51 | 87.90±2.63 | 12% | 1,710±127 centimeters | 13% | 265.4±32.9 | 177.1 ± 3.68 | 24.25 ± 1.28 | 40.25 ± 2.44 | 0.89 ± 0.11 | 28.75 ± 1.28 | 5% | increase in soleus muscle mass compared to control (male Swiss Albino mice [6]): but not soleus muscle mass; Heart mass [7]: 189 ± 2.3 mg; Liver mass [7]: 1,866 ± 43 mg; Nitric Oxide (Nitric oxide): 10.23 ± 1.26 ng/mL; increase in nitric oxide levels over control (Nitric oxide): 57% |
| C[N+](C)(C)CCOP(=O)([O-])OC[C@H](O)CO [Alpha-GPC, L-alpha glycerylphosphorylcholine] | 22.50 ± 0.44 | 24.10 ± 0.40 | 27.05 ± 0.50 | 29.14 ± 0.49 | 31.68 ± 0.44 | 40.91 ± 0.55 | 43.34 ± 0.40 | 45.49 ± 0.40 | 47.54 ± 0.42 | 91.00±0.40 | 8% | 1,695±53.0 centimeters | did not increase treadmill performance | 248.6±42.2 | 179.3 ± 3.99 | 23.63 ± 1.51 | 38.88 ± 2.10 | 0.90 ± 0.16 | 29.38 ± 1.41 | no effect on muscle mass | increase in soleus muscle mass compared to control (male Swiss Albino mice [6]): no effect on muscle mass; Heart mass [7]: 189 ± 1.0 mg; Liver mass [7]: 1,869 ± 32 mg; Nitric Oxide (Nitric oxide): 9.21 ± 2.33 ng/mL; increase in nitric oxide levels over control (Nitric oxide): 42% |
